# Patent publication US20230022157A1 (Achillion Pharmaceuticals, Inc., priority 2018, published 2023)
# Structures can show the parent of a compound that is named as a salt.
# Target: T1, Human Factor D (Homo sapiens, UniProt P00746)
# T1 construct: purified from human serum; purchased Complement Technology, Inc; host or cells: human serum (natural protein, not recombinant)
# Assay: Human Factor D Assay
# Format: biochemical
# Conditions: Human Factor D 80 nM, substrate Z-L-Lys-SBzl, assay of Example 3; read-out: IC50 (Stars)
# Procedure, shortened: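 Serum-purified human factor D (80 nM final) preincubated 5 min at room temperature with test compound in 50 mM Tris, 1M NaCl, pH 7.5. Z-L-Lys-SBzl substrate and DTNB then added, each at 100 μM final. IC50 from nonlinear regression of reaction rate against compound concentration.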
# T1 sequence (P00746 26-253): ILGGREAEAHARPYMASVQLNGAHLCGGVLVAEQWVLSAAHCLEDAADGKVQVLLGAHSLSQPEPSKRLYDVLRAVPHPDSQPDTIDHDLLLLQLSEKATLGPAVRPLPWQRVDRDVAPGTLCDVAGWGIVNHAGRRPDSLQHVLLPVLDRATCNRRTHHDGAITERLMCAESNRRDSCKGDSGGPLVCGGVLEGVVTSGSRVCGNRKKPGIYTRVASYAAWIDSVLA
row,SMILES,IC50 [nM]
1,"CC(=O)c1nn(CC(=O)N2[C@H](C(=O)Nc3nc(Br)ccc3C)C[C@@]3(C)C[C@@H]23)c2c(C)cc(-c3cnc(CO)nc3)cc12 [Compound 27, (1R,3S,5R)-2-(2-(3-Acetyl-5-(2-(hydroxymethyl)pyrimidin-5-yl)-7-methyl-1H-indazol-1-yl)acetyl)-N-(6-bromo-3-methylpyridin-2-yl)-5-methyl-2-azabicyclo[3.1.0]hexane-3-carboxamide]",< 1000
2,CC(=O)c1nn(CC(=O)N2[C@H](C(=O)Nc3nc(Br)ccc3C)C[C@@]3(C)C[C@@H]23)c2c3c(c(-c4cnc(C)nc4)cc12)CCCO3 [Compound 20],< 1000
3,"CC(=O)c1nn(CC(=O)N2[C@H](C(=O)N[C@@H](C)[C@H]3CC3(Cl)Cl)C[C@@]3(C)C[C@@H]23)c2ccc(-c3cnc(C)nc3)cc12 [Compound 26, (1R,3S,5R)-2-(2-(3-acetyl-5-(2-methylpyrimidin-5-yl)-1H-indazol-1-yl)acetyl)-N-((S)-1-((R)-2,2-dichlorocyclo-propyl)ethyl)-5-methyl-2-azabicyclo[3.1.0] hexane-3-carboxamide]",< 1000
4,"CC(=O)c1nn(CC(=O)N2[C@H](C(=O)NCCc3ccccn3)C[C@@]3(C)C[C@@H]23)c2c(C)cc(-c3cnc(C)nc3)cc12 [Compound 6, (1R,3S,5R)-2-(2-(3-Acetyl-7-methyl-5-(2-methylpyrimidin-5-yl)-1H-indazol-1-yl)acetyl)-5-methyl-N-(2-(pyridin-2-yl)ethyl)-2-azabicyclo[3.1.0]hexane-3-carboxamide]",< 1000

# Same assay, conditions: Human Factor D 80 nM, substrate Z-L-Lys-SBzl; Table 2; read-out: IC50 (Stars)
row,SMILES,IC50 [nM]
1,"CC(=O)c1nn(CC(=O)N2[C@H](C(=O)NCC3(C)CC3)C[C@@]3(C)C[C@@H]23)c2c(C)cc(-c3cnc(C)nc3)cc12 [Compound 89, (1R,3S,5R)-2-{2-[3-acetyl-7-methyl-5-(2-methylpyrimidin-5-yl)indazol-1-yl]acetyl}-5-methyl-N-[(1-methylcyclopropyl)methyl]-2-azabicyclo[3.1.0]hexane-3-carboxamide]",< 1000
2,"CC(=O)c1nn(CC(=O)N2[C@H](C(=O)Nc3nc(C(F)(F)F)ccc3C)C[C@@]3(C)C[C@@H]23)c2c(C)cc(-c3cnc4c(O)c(C)nn4c3)cc12 [Compound 232, (1R,3S,5R)-2-(2-(3-acetyl-5-(3-hydroxy-2-methylpyrazolo[1,5-a]pyrimidin-6-yl)-7-methyl-1H-indazol-1-yl)acetyl)-5-methyl-N-(3-methyl-6-(trifluoromethyl)pyridin-2-yl)-2-azabicyclo[3.1.0]hexane-3-carboxamide]",< 1000
3,"CC(=O)c1nn(CC(=O)N2[C@H](C(=O)Nc3nc(Br)ccc3C)C[C@@]3(C)C[C@@H]23)c2c(C)cc(-c3cnc(C(C)O)nc3)cc12 (stereo partly drawn) [Compound 95, (1R,3S,5R)-2-(2-(3-acetyl-5-(2-(1-hydroxyethyl)pyrimidin-5-yl)-7-methyl-1H-indazol-1-yl)acetyl)-N-(6-bromo-3-methylpyridin-2-yl)-5-methyl-2-azabicyclo[3.1.0]hexane-3-carboxamide]",< 1000
4,"CC(=O)c1nn(CC(=O)N2[C@H](C(=O)N[C@H]3CCCCC34OCCO4)C[C@@]3(C)C[C@@H]23)c2c(C)cc(-c3cnc(C)nc3)cc12 (single isomer, unassigned) [Compound 135]",1000 to 10000
5,"CC(=O)c1nn(CC(=O)N2C[C@@H](C(C)(C)N)C[C@H]2C(=O)Nc2nc(C(F)(F)F)ccc2C)c2c(C)cc(-c3cnc(C)nc3)cc12 [Compound 56, (2S,4S)-1-(2-(3-acetyl-7-methyl-5-(2-methylpyrimidin-5-yl)-1H-indazol-1-yl)acetyl)-4-(2-aminopropan-2-yl)-N-(3-methyl-6-(trifluoromethyl)pyridin-2-yl)pyrrolidine-2-carboxamide hydrochloride]",< 1000

# Results, then the compound that gave them:
row,IC50 [nM],SMILES
1,< 1000,"CC(=O)c1cn(CC(=O)N2C[C@H]3C[C@H]3[C@H]2C(=O)Nc2nc(Br)ccc2C)c2c(C)cc(-c3cnc(CO)nc3)cc12 [Compound 79, (1R,2S,5S)-3-(2-(3-acetyl-5-(2-(hydroxymethyl)pyrimidin-5-yl)-7-methyl-11H-indol-1-yl)acetyl)-N-(6-bromo-3-methylpyridin-2-yl)-3-azabicyclo[3.1.0]hexane-2-carboxamide]"
2,< 1000,"Cc1ncc(-c2ccc3c(c2)c(C2OCCO2)nn3CC(=O)N2[C@H](C(=O)Nc3nc(Br)ccc3C)C[C@@]3(C)C[C@@H]23)cn1 [Compound 143, (1R,3S,5R)-2-(2-(3-(1,3-dioxolan-2-yl)-5-(2-methylpyrimidin-5-yl)-1H-indazol-1-yl)acetyl)-N-(6-bromo-3-methylpyridin-2-yl)-5-methyl-2-azabicyclo[3.1.0]hexane-3-carboxamide]"
3,< 1000,CC(=O)c1nn(CC(=O)N2[C@H](C(=O)NC(C)CC3CCC3)C[C@@]3(C)C[C@@H]23)c2c(C)cc(-c3cnc(C)nc3)cc12 (some centres unmarked) [Compound 134]
4,< 1000,"CC(=O)c1cn(CC(=O)N2[C@H](C(=O)Nc3nc(Br)ccc3C)C[C@@]3(C)C[C@@H]23)c2c(C)cc(-c3cnc(CF)nc3)cc12 [Compound 221, (1R,3S,5R)-2-(2-(3-acetyl-5-(2-(fluoromethyl)pyrimidin-5-yl)-7-methyl-1H-indol-1-yl)acetyl)-N-(6-bromo-3-methylpyridin-2-yl)-5-methyl-2-azabicyclo[3.1.0]hexane-3-carboxamide]"
5,< 1000,"CC(=O)c1cn(CC(=O)N2[C@H](C(=O)Nc3nc(C(F)(F)F)ccc3C)C[C@@]3(C)C[C@@H]23)c2cc(F)c(-c3cnc4cc(C)nn4c3)cc12 [Compound 230, (1R,3S,5R)-2-(2-(3-acetyl-6-fluoro-5-(2-methylpyrazolo[1,5-a]pyrimidin-6-yl)-1H-indol-1-yl)acetyl)-5-methyl-N-(3-methyl-6-(trifluoromethyl)pyridin-2-yl)-2-azabicyclo[3.1.0]hexane-3-carboxamide]"
6,< 1000,"CC(=O)c1nn(CC(=O)N2[C@H](C(=O)Nc3cc(F)cc(Br)n3)C[C@@]3(C)C[C@@H]23)c2c(C)cc(-c3cnc(C(C)O)nc3)cc12 (stereo partly drawn) [Compound 124, (1R,3S,5R)-2-(2-(3-acetyl-5-(2-(1-hydroxyethyl)pyrimidin-5-yl)-7-methyl-1H-indazol-1-yl)acetyl)-N-(6-bromo-4-fluoropyridin-2-yl)-5-methyl-2-azabicyclo[3.1.0]hexane-3-carboxamide]"
7,< 1000,"Cc1ncc(-c2cc3c(C(N)=O)nn(CC(=O)N4C[C@H]5C[C@H]5[C@H]4C(=O)Nc4nc(Br)c(F)cc4C)c3c(C)n2)cn1 [Compound 111, 1-{2-[2-(6-Bromo-5-fluoro-3-methyl-pyridin-2-ylcarbamoyl)-3-aza-bicyclo[3.1.0]hex-3-yl]-2-oxo-ethyl}-7-methyl-5-(2-methyl-pyrimidin-5-yl)-1H-pyrazolo[3,4-c]pyridine-3-carboxylic acid amide]"
8,< 1000,"CC(=O)c1nn(CC(=O)N2[C@H](C(=O)NCCc3ccn(C)n3)C[C@@]3(C)C[C@@H]23)c2c(C)cc(-c3cnc(C)nc3)cc12 [Compound 103, (1R,3S,5R)-2-{2-[3-acetyl-7-methyl-5-(2-methylpyrimidin-5-yl)indazol-1-yl]acetyl}-5-methyl-N-[2-(1-methylpyrazol-3-yl)ethyl]-2-azabicyclo[3.1.0]hexane-3-carboxamide]"
9,< 1000,"CC(=O)c1nn(CC(=O)N2[C@H](C(=O)NCC3(C)CCCCC3)C[C@@]3(C)C[C@@H]23)c2c(C)cc(-c3cnc(C)nc3)cc12 [Compound 90, (1R,3S,5R)-2-{2-[3-acetyl-7-methyl-5-(2-methylpyrimidin-5-yl)indazol-1-yl]acetyl}-5-methyl-N-[(1-methylcyclohexyl)methyl]-2-azabicyclo[3.1.0]hexane-3-carboxamide]"
10,< 1000,CC(=O)c1ncc(-c2cc(C)c3c(c2)c(C(C)=O)nn3CC(=O)N2[C@H](C(=O)Nc3nc(Br)ccc3C)C[C@@]3(C)C[C@@H]23)cn1 [Compound 58]
11,< 1000,"CC(=O)c1nn(CC(=O)N2[C@H](C(=O)Nc3cncc(Br)n3)C[C@@]3(C)C[C@@H]23)c2c(C)cc(-c3cnc(CO)nc3)cc12 [Compound 48, (1R,3S,5R)-2-(2-(3-acetyl-5-(2-(hydroxymethyl)pyrimidin-5-yl)-7-methyl-11H-indazol-1-yl)acetyl)-N-(6-bromopyrazin-2-yl)-5-methyl-2-azabicyclo[3.1.0]hexane-3-carboxamide]"
12,< 1000,"COc1cc(Br)nc(NC(=O)[C@@H]2C[C@@]3(C)C[C@H]3N2C(=O)Cn2nc(C(N)=O)c3cc(-c4cnc(C)nc4)nc(C)c32)c1 [Compound 113, 1-(2-((1R,3S,5R)-3-((6-bromo-4-methoxypyridin-2-yl)carbamoyl)-5-methyl-2-azabicyclo[3.1.0]hexan-2-yl)-2-oxoethyl)-7-methyl-5-(2-methylpyrimidin-5-yl)-1H-pyrazolo[3,4-c]pyridine-3-carboxamide]"
13,< 1000,"CC(=O)c1cn(CC(=O)N2[C@H](C(=O)Nc3nc(C(F)(F)F)ccc3C)C[C@@]3(C)C[C@@H]23)c2ccc(-c3cnc4cc(C)nn4c3)cc12 [Compound 203, (1R,3S,5R)-2-(2-(3-acetyl-5-(2-methylpyrazolo[1,5-a]pyrimidin-6-yl)-1H-indol-1-yl)acetyl)-5-methyl-N-(3-methyl-6-(trifluoromethyl)pyridin-2-yl)-2-azabicyclo[3.1.0]hexane-3-carboxamide]"
14,< 1000,"COCCOC[C@@]12C[C@@H](C(=O)Nc3nc(Br)ccc3C)N(C(=O)Cn3nc(C(C)=O)c4cc(-c5cnc(C)nc5)cc(C)c43)[C@@H]1C2 [Compound 107, (1R,3S,5S)-2-(2-(3-acetyl-7-methyl-5-(2-methylpyrimidin-5-yl)-1H-indazol-1-yl)acetyl)-N-(6-bromo-3-methylpyridin-2-yl)-5-((2-methoxyethoxy)methyl)-2-azabicyclo[3.1.0]hexane-3-carboxamide]"
